Assay results: patent US20260335398A1, “METHODS FOR TREATING PANCREATIC CANCER WITH A COMBINATION OF DES-METHYL PATEAMINE A AND A CLASS I HDAC INHIBITOR” (Baylor University, priority 2023, published 2026)

Legend:
[1] = tested on: PANC-1, PANC 02.13, MIA PaCa-2, Capan-1, KLM, AsPC-1 and BXPC3 cells; test: Cytotoxicity/cell viability with romidepsin, DMPatA and their combination in seven PDAC cell lines (FIG. 1A); type: cell-based; details: romidepsin 15 nM for 6 h, alone or with DMPatA 2 nM
Protocol: FIG. 1A compares cytotoxicity graphs of the effect of romidepsin alone at increasing doses (circles), DMPatA alone at 2 nM (diamond), and combination of romidepsin with DMPatA at 2 nM (triangles) on PANC-1, PANC 02.13, MIA PaCa-2, Capan-1, KLM, AsPC-1 and BXPC3 cells. Romidepsin treatment in both the single agent and the combination was for 6 hours after which it was washed out and medium replaced with fresh medium without (single agent romidepsin) or with DMPatA for an additional 42 hours (combination).
This schedule of romidepsin treatment features a 6-hour exposure followed by washout of romidepsin and replacement with fresh media, whereas most investigators expose cells to 1-2 nM over 48-96 hours of continuous romidepsin. […] Thus a 6-hour exposure is more clinically relevant. Most cell types are susceptible to romidepsin over non-clinically relevant long treatment durations.
It was initially hypothesized that the HDAC-inhibitor romidepsin could cause synergistic cell death when combined with DMPatA via a reduction in MYC levels previously seen with both eIF4A inhibitors and with romidepsin in KRAS cells. […]
Cell viability was determined using CellTiter-Glo® reagent (Promega, #G7570) following the manufacturer's instructions. […] After incubation, assay reagent was added, and luminescent signals were quantified using a microplate reader (PHERAstar® FS, BMG LABTECH, Ortenberg, Germany). […]

MIA PaCa-2 cells = test: Metabolic flux analysis, basal mitochondrial respiration (OCR) (FIG. 8C left); type: cell-based; details: MIA PaCa-2, total 18 h
Protocol: FIG. 8C left panel presents the results of metabolic flux analysis showing basal mitochondrial respiration (OXPHOS) (oxygen consumption rate, OCR) in MIA PaCa-2 cells following treatment with combinations or single drugs. Treatment was for a total of 18 h, as mentioned in FIG. 8A. Statistical significance was determined by one-way ANOVA, ***p value<0.001, *p value<0.01. FIG. 8C right panel presents the results of quantification of glutamine consumption. Cells were treated as mentioned in FIG. 8A. Prior to the metabolic measurements cells were starved of glucose, glutamine, and pyruvate for 1-hour after which glutamine was added and response was recorded as ΔOCR (i.e. OCR before and after glutamine addition). Statistical significance was determined by one-way ANOVA, ****p value<0.0001, ***p value<0.0005.
Because reprograming/augmentation of cellular metabolism by c-MYC is known to support oncogenesis, the Seahorse XF analyzer was used to assess the impact of the treatments on c-MYC-driven metabolism including ATP production, glycolysis, and mitochondrial oxidative phosphorylation (OXPHOS). Extracellular acidification rates, also known as proton efflux rate (PER), were measured for glycolysis and mitochondrial oxygen consumption rates (OCR) for OXPHOS. We utilized the 6 h exposure followed by 18 h washout strategy for romidepsin described earlier. […]

MIA PaCa-2 and KLM cells = test: Replication fork dynamics; type: cell-based; details: 24 hours
Source text: Having observed R-loop accumulation following treatment with the combination, it was hypothesized that hypertranscription, persistent hyperacetylation, and R-loop accumulation could increase the incidence of transcription replication conflicts, genome instability, and DNA damage and contribute to cell death. In response to DNA damage, replication protein A2 (RPA2) is phosphorylated at multiple sites by different protein kinases, including ATM, ATR, and DNA-PK, while the serine threonine-protein kinase, Chk1 (checkpoint kinase 1), is phosphorylated and activated by ATR. […] Drug treatments were for 24 hours (i.e., romidepsin treatment in combination or single agent romidepsin was 6 hours followed by 18-hour incubation with 2 nM DMPatA or with fresh medium respectively).

[2] = patients, 4-hour infusion; cited from earlier work

## C/C=C1\NC(=O)[C@H]2CSSCC/C=C/[C@H](CC(=O)N[C@H](C(C)C)C(=O)N2)OC(=O)[C@H](C(C)C)NC1=O [romidepsin]
[1]
  toxicity / lethality at low concentration: minimal to no toxicity
MIA PaCa-2 cells
  mitochondrial function (OCR): impaired mitochondrial function
MIA PaCa-2 and KLM cells
  replication fork speed: significant reduction
[2]
  half-life: approximately 3.5 hour
